Results published in patent US20250114486A1, “MARKED FATTY ACID DERIVATIVE, PRECURSOR COMPOUND THEREOF, AND USE THEREOF IN CONTRAST AGENT” (BEIJING NORMAL UNIVERSITY, priority 2022, published 2025).

Experiment: In vivo biodistribution of radioactive ^99mTc complexes in female SD rats
Design: species or system female Sprague-Dawley (SD) rats
Settings: for Biodistribution: Large Intestine / Biodistribution: Small Intestine / Biodistribution: Stomach: unit % ID
Experimental: Female SD rats (180-220 g, n=3) were fasted for 12 h before the experiment, and the purified radioactive 99mTc complexes 78-81 were prepared into physiological saline (containing 10% ethanol) solutions of about 250-350 μCi/mL. 200 μL of the above solution was injected into the tail vein of female SD rats, and the rats were killed by cervical dislocation at five time points, 15, 30, 60, 120 and 240 min after the tail vein injection. The blood, brain, heart, liver, spleen, lung, kidney, muscle, bone, large intestine, small intestine, stomach and tail were collected, weighed and counted, and the count distribution of each tissue and organ was calculated (unit: % ID/g, the unit of large intestine, small intestine and stomach is % ID), and the data are the mean±standard deviation of three mice in each phase. At the same time, 200 μL of the above solution was diluted to 20 mL, which was used as the % ID without deducting the tail count.

SMILES: COC(C)(C)C[N+]#[C][99Tc-5]([C]#[N+]CC(C)(C)OC)([C]#[N+]CC(C)(C)OC)([C]#[N+]CC(C)(C)OC)([C]#[N+]CC(C)(C)OC)[C]#[N+]CC(C)(C)OCCCCCSCCCCC(=O)O [^99mTc complex 80]
- Biodistribution: Blood (15 min post-injection): 0.018 ± 0.003 ID %/g
- Biodistribution: Bone (15 min post-injection): 0.11 ± 0.05 ID %/g
- Biodistribution: Brain (15 min post-injection): 0.008 ± 0.004 ID %/g
- Biodistribution: Heart (15 min post-injection): 0.94 ± 0.16 ID %/g
- Biodistribution: Kidney (15 min post-injection): 2.43 ± 0.10 ID %/g
- Biodistribution: Liver (15 min post-injection): 0.49 ± 0.03 ID %/g
- Biodistribution: Lungs (15 min post-injection): 0.14 ± 0.04 ID %/g
- Biodistribution: Muscle (15 min post-injection): 0.14 ± 0.04 ID %/g
- Biodistribution: Spleen (15 min post-injection): 0.23 ± 0.06 ID %/g
- Heart-to-Blood ratio (15 min post-injection): 53.37 ± 6.93
- Heart-to-Liver ratio (15 min post-injection): 1.91 ± 0.40
- Heart-to-Lungs ratio (15 min post-injection): 7.04 ± 1.69
- absolute myocardial uptake value (15 min post-injection): 0.94±0.16 % ID/g
- Biodistribution: Large Intestine (15 min post-injection): 5.34 ± 1.37 % ID
- Biodistribution: Small Intestine (15 min post-injection): 8.49 ± 0.85 % ID
- Biodistribution: Stomach (15 min post-injection): 0.27 ± 0.09 % ID
- Biodistribution: Blood (30 min post-injection): 0.026 ± 0.003 ID %/g
- Biodistribution: Bone (30 min post-injection): 0.10 ± 0.01 ID %/g
- Biodistribution: Brain (30 min post-injection): 0.010 ± 0.003 ID %/g
- Biodistribution: Heart (30 min post-injection): 1.42 ± 0.32 ID %/g
- Biodistribution: Kidney (30 min post-injection): 4.66 ± 0.51 ID %/g
- Biodistribution: Liver (30 min post-injection): 1.01 ± 0.29 ID %/g
- Biodistribution: Lungs (30 min post-injection): 0.32 ± 0.04 ID %/g
- Biodistribution: Muscle (30 min post-injection): 0.22 ± 0.07 ID %/g
- Biodistribution: Spleen (30 min post-injection): 0.26 ± 0.06 ID %/g
- Heart-to-Blood ratio (30 min post-injection): 54.80±11.86
- Heart-to-Liver ratio (30 min post-injection): 1.48 ± 0.45
- Heart-to-Lungs ratio (30 min post-injection): 4.40 ± 0.64
- absolute myocardial uptake value (30 min post-injection): 1.42±0.32 % ID/g
- Biodistribution: Large Intestine (30 min post-injection): 6.69 ± 0.68 % ID
- Biodistribution: Small Intestine (30 min post-injection): 10.71 ± 1.89 % ID
- Biodistribution: Stomach (30 min post-injection): 0.53 ± 0.07 % ID
- Biodistribution: Blood (60 min post-injection): 0.013 ± 0.003 ID %/g
- Biodistribution: Bone (60 min post-injection): 0.064 ± 0.004 ID %/g
- Biodistribution: Brain (60 min post-injection): 0.011 ± 0.005 ID %/g
- Biodistribution: Heart (60 min post-injection): 2.06 ± 0.06 ID %/g
- Biodistribution: Kidney (60 min post-injection): 2.39 ± 0.58 ID %/g
- Biodistribution: Liver (60 min post-injection): 0.33 ± 0.09 ID %/g
- Biodistribution: Lungs (60 min post-injection): 0.22 ± 0.03 ID %/g
- Biodistribution: Muscle (60 min post-injection): 0.48 ± 0.06 ID %/g
- Biodistribution: Spleen (60 min post-injection): 0.16 ± 0.06 ID %/g
- Heart-to-Blood ratio (60 min post-injection): 164.01±43.51
- Heart-to-Liver ratio (60 min post-injection): 6.43±1.85
- Heart-to-Lungs ratio (60 min post-injection): 9.48±1.39
- absolute myocardial uptake value (60 min post-injection): 2.06 0.06 % ID/g
- Biodistribution: Large Intestine (60 min post-injection): 12.36 ± 2.55 % ID
- Biodistribution: Small Intestine (60 min post-injection): 6.75 ± 1.89 % ID
- Biodistribution: Stomach (60 min post-injection): 0.56 ± 0.27 % ID
- Biodistribution: Blood (120 min post-injection): 0.009 ± 0.001 ID %/g
- Biodistribution: Bone (120 min post-injection): 0.07 ± 0.02 ID %/g
- Biodistribution: Brain (120 min post-injection): 0.010 ± 0.005 ID %/g
- Biodistribution: Heart (120 min post-injection): 1.73 ± 0.09 ID %/g
- Biodistribution: Kidney (120 min post-injection): 1.30 ± 0.41 ID %/g
- Biodistribution: Liver (120 min post-injection): 0.18 ± 0.01 ID %/g
- Biodistribution: Lungs (120 min post-injection): 0.16 ± 0.01 ID %/g
- Biodistribution: Muscle (120 min post-injection): 0.34 ± 0.03 ID %/g
- Biodistribution: Spleen (120 min post-injection): 0.15 ± 0.01 ID %/g
- Heart-to-Blood ratio (120 min post-injection): 197.36±32.29
- Heart-to-Liver ratio (120 min post-injection): 9.68±0.76
- Heart-to-Lungs ratio (120 min post-injection): 11.40±3.06
- absolute myocardial uptake value (120 min post-injection): 1.73±0.09 % ID/g
